# Test results as given in patent publication US9078907B2, “Immunoregulator compounds” (Universita Degli Studi Di Roma “Tor Vergata”, priority 2001, dated 2015).
# What was measured:
# macrophage PLD = type: cell-based, human
# macrophages = experiment: ROI generation by dichlorofluorescein (DCF) flow cytometry; type: cell-based, human
# Experimental: Because dichloro fluorescein (DCF) is a fluorochrome obtained from reaction of non fluorescent 2, 7-dichloro fluorescein diacetate (DCFH) with various oxidants, analysis thereof is used to detect cellular oxidative stress and amount of oxygen reactive intermediates (ROI) produced by phagocytic cells. In the used model, this analysis is employed in order to monitor the D-erythro-sphingosine 1-phosphate (S1P) modulated ROI production from macrophages. Macrophages were incubated for 90 minutes with sphingosine 1-phosphate at 0.5 μM, 5 μM, 10 μM and 50 μM concentrations. After the incubation 100 μl of 0.4 μM DCFH (Calbiochem) were added and incubated for at least 30 minutes. Finally, cells were washed with PBS and analysed using FACScan flow cytometer from Becton Dickinson.
# H37Rv MTB = experiment: Mycobacterial viability (CFU) in MTB infected monocyte derived macrophages; type: cell-based, Mycobacterium tuberculosis; conditions: MTB MOI 1:1, S1P 5 μM, 5 days after the infection, statistically significant
# Experimental: In order to evaluate the bacterial viability, monocyte derived macrophages were infected for 3 hours with MTB at 1:1 macrophage/bacterium infection ratio and then treated with S1P (5 μM). At time 0(just after infection) and after 2 and 5 days the plates containing infected cellular cultures were centrifuged at 2000 RPM for 10 minutes and the supernatant was discarded. Then 1 ml PBS and 0.1% saponin were added to each well and the contents were incubated for 20 minute at 37° C. After incubation cellular lysates were sonicated for 20 seconds in such a way to break any possible bacterial aggregates. Lysates thus obtained were diluted in sterile saline 1:100, 1:1000, 1:10000 with addition of 0.01% Tween 80 and plated on Middlebrook 7H10 (Difco). Plates were incubated at 37° C. for about one month and colonies enumerated.
# Based on the observations about the possible antimicrobial role of PLD and S1P during Mycobacterium tuberculosis infection it was investigated whether S1P macrophage exogenous stimulation and PLD activation were associated to a reduction of mycobacterial viability. To that object, monocytes were infected for three hours with H37Rv MTB at a multiplicity of infection of 1 bacillus for 1 cell. […]
# [1] = test system: Mycobacterium tuberculosis; experiment: Dose dependent effect of S1P on MTB replication in macrophages from peripheral blood monocytes; type: cell-based; conditions: human monocyte-derived macrophages, 4 donors, 0.5, 5 or 50 μM, fifth day after infection
# Experimental: Peripheral blood mononuclear cells were isolated from human Buffy coat blood preparations by gradient centrifugation and suspended at 5×10^6/ml in complete medium [RPMI 1640 (Gibco BRL) supplemented with 10% fetal bovine serum (Gibco BRL), 5 mM L-glutamine and Gentamicine (5 μg/ml)]. Monocytes were then separated by adherence for 1 hour in polystyrene 75 cm^2 flasks (Corning, Cambridge, Mass.). After incubation, non-adherent cells were removed by three washes with warm RPMI 1640. […] Finally, adherent monocytes were collected after 15 minute incubation at 4° C. in the presence of 5 mM EDTA in PBS. Cells then were washed, incubated in complete medium for 5-7 days in 24 well plate at the concentration of 10^6 cells/ml to get monocyte-derived macrophages. […]
# Sphingosine 1-phosphate (S-1P), used at the concentrations of 0.5, 5 or 50 μM inhibits intracellular replication of Mycobacterium tuberculosis in human monocyte-derived macrophages (MDM) from peripheral blood of healthy donors. Results are obtained from experiments performed on MDM from 4 different donors and are expressed as the means of the percentages of mycobacterial killing±standard error at the fifth day after infection. Percentage of mycobacterial killing is calculated by using the following formula: [1−(CFU from infected and S-1P stimulated MDM/CFU from infected unstimulated MDM)]×100.
# Mycobacterium smegmatis = experiment: Colony forming units of M. smegmatis in differentiated THP-1 cells; type: cell-based; conditions: THP-1 macrophage cell line, MOI 50:1, 5 μM, 1, 12 and 24 hours
# Experimental: Human monocytic THP-1 leukemia line cells were used in this example as a model for macrophage response. In order to obtain macrophage phenotype, 5×10^5/ml THP-1 cells were induced to differentiate by 48 hours incubation in the presence of 20 ng/ml Phorbol Myristate Acetate (PMA). Differentiated THP-1 cells (dTHP-1) were then centrifuged three times and suspended in complete medium [RPMI 1640 (Gibco BRL) supplemented with 10% fetal bovine serum (Gibco BRL), 5 mM L-glutamine (Invitrogen), 1 mM sodium pyruvate (Gibco BRL) and non-essential amino acids (Euroclone)]. dTHP-1 were then infected for 3 hours with M. smegmatis at the multiplicity of infection of bacterium/cell 50:1. Following infection cells were washed three times with RPMI 1640 and incubated in complete medium at 37° C. for further 1, 12 and 24 hours in the presence or absence of sphingosine-1 phosphate used at the concentration of 5 μM.
# In order to assess the role of macrophage PLD activity in sphingosine 1-phosphate induced mycobacterial growth control, following the infection the cells were cultured in the presence of various concentrations of ethanol (0.3%, 0.03%, 0.003%) or 10 nM calphostin C. […] Inhibiting activity of calphostin C is exploited by targeting PLD catalytic domain (Sciorra V. A., Hammond S. M., Morris A. J. Potent direct inhibition of mammalian phospholipase D isoenzymes by calphostin c. Biochemistry 2001; 40: 2640-46). Just after the infection and at the indicated time points, cells were 1) lysed using cold PBS containing 0.1% saponin (Sigma, MA, USA), ii) serially diluted in PBS containing 0.01% Tween-80 (Merck, Darmstadt, Germany) and iii) plated in triplicate in Middlebrook 7H10 medium (Becton Dickinson, MD, USA) supplemented with 10% OADC formulation (0.5 mg/ml oleic acid, 50 mg/ml albumin, 20 mg/ml dextrose, 0.04 mg/ml catalase and 8.5 mg/ml sodium chloride). M. smegmatis colonies were enumerated after incubation for 3 days at 37° C.
smiles,measurement,setting,value
"CCCCCCCCCCCCC/C=C/[C@@H](O)[C@@H](N)COP(=O)(O)O [S1P, D-erythro-sphingosine 1-phosphate]","Pet-OH production, index of PLD activity, versus MTB infected non S1P treated macrophages",macrophage PLD,higher
same,S1P concentration giving maximum activation of macrophage PLD,macrophage PLD,5 µM
same,time of maximum activation of macrophage PLD,macrophage PLD,30 min
same,ROI production by macrophages over the time,"macrophages; 5 μM S1P, DCF positive response after 30 and 90 minutes",increases progressively over the time
same,S1P dose giving maximum DCF positive response,"macrophages; scalar S1P doses, % DCF positive cells",5-10 μm
same,CFU number after S1P treatment,H37Rv MTB,reduced
same,intracellular replication of Mycobacterium tuberculosis (percentage of mycobacterial killing),[1],inhibits
same,intracellular replication of Mycobacterium smegmatis (CFU),Mycobacterium smegmatis,inhibits
